Measurements taken from patent US10519152B2, “Compounds and their use in treating cancer” (AstraZeneca AB, priority 2017, dated 2019).

Target: T1, Estrogen Receptor (ERα) in MCF-7 human ductal carcinoma breast cell line (Homo sapiens, UniProt P03372)
T1 construct: endogenous in cells; host or cells: MCF-7
T1 sequence (P03372 1-595): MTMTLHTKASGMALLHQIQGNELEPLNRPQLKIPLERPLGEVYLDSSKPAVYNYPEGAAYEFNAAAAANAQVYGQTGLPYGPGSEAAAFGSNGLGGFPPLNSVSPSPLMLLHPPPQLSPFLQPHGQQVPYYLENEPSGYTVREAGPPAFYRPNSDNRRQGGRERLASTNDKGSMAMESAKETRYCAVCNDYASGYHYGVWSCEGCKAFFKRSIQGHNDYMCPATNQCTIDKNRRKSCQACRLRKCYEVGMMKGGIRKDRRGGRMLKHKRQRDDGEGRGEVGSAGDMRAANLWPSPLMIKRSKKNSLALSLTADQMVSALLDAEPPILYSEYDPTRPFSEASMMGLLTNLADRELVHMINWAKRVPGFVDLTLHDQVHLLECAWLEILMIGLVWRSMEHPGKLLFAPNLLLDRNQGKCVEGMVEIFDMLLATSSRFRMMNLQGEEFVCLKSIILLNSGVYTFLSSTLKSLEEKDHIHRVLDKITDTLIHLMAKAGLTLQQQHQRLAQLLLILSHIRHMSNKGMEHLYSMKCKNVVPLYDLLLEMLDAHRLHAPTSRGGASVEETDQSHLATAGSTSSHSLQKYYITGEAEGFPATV
Test: MCF-7 ER degradation assay (cell based immuno-fluorescence)
Conditions: MCF-7 cells; for ER degradation ≥ 90% at 0.3 μM: ER degradation by fulvestrant at 0.3 μM is defined as 100%; for DC50: 18-22 hours incubation, 50% reduction of ERα expression, single experiment or average of two or more, read-out: MCF-7 ER degradation IC50
In short: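 MCF-7 human ductal carcinoma breast cells were seeded at 3.75×10^4 cells per mL (40 μL per well) in 384 well plates with phenol red free DMEM containing 2 mM L-Glutamine and 5% (v/v) Charcoal/Dextran treated foetal calf serum. After overnight culture, compounds were acoustically dispensed, incubated 18-22 hours, then cells were formaldehyde-fixed and immunostained for ERα.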

Compound | ER degradation ≥ 90% at 0.3 μM | DC50
Cc1ncsc1-c1ccc(CNC(=O)[C@@H]2C[C@@H](O)CN2C(=O)[C@@H](NC(=O)COCCCCC(=O)NCCOc2cc(F)c([C@@H]3c4[nH]c5ccccc5c4C[C@@H](C)N3CC(C)(C)F)c(F)c2)C(C)(C)C)cc1 [Example 142, (2S,4R)-1-((S)-2-(2-((5-((2-(3,5-Difluoro-4-((1R,3R)-2-(2-fluoro-2-methylpropyl)-3-methyl-2,3,4,9-tetrahydro-1H-pyrido[3,4-b]indol-1-yl)phenoxy)ethyl)amino)-5-oxopentyl)oxy)acetamido)-3,3-dimethylbutanoyl)-4-hydroxy-N-(4-(4-methylthiazol-5-yl)benzyl)pyrrolidine-2-carboxamide] | •• | 0.2 nM
Cc1ncsc1-c1ccc(CNC(=O)[C@@H]2C[C@@H](O)CN2C(=O)[C@@H](NC(=O)COCCC(C)(C)CCOc2cc(F)c([C@@H]3c4[nH]c5ccccc5c4C[C@@H](C)N3CC(C)(C)F)c(F)c2)C(C)(C)C)cc1 [Example 23, (2S,4R)-1-((S)-2-(2-((5-(3,5-Difluoro-4-((1R,3R)-2-(2-fluoro-2-methylpropyl)-3-methyl-2,3,4,9-tetrahydro-1H-pyrido[3,4-b]indol-1-yl)phenoxy)-3,3-dimethylpentyl)oxy)acetamido)-3,3-dimethylbutanoyl)-4-hydroxy-N-(4-(4-methylthiazol-5-yl)benzyl)pyrrolidine-2-carboxamide] | •• | 1 nM
Cc1ncsc1-c1ccc(CNC(=O)[C@@H]2C[C@@H](O)CN2C(=O)[C@@H](NC(=O)COCCCCCN(C)CCOc2cc(F)c([C@@H]3c4[nH]c5ccccc5c4C[C@@H](C)N3CC(C)(C)F)c(F)c2)C(C)(C)C)cc1 [Example 49, (2S,4R)-1-((S)-2-(2-((5-((2-(3,5-difluoro-4-((1R,3R)-2-(2-fluoro-2-methylpropyl)-3-methyl-2,3,4,9-tetrahydro-1H-pyrido[3,4-b]indol-1-yl)phenoxy)ethyl)(methyl)amino)pentyl)oxy)acetamido)-3,3-dimethylbutanoyl)-4-hydroxy-N-(4-(4-methylthiazol-5-yl)benzyl)pyrrolidine-2-carboxamide] | • | 0.9 nM
Cc1ncsc1-c1ccc(CNC(=O)[C@@H]2C[C@@H](O)CN2C(=O)[C@@H](NC(=O)COCCCCCOCCOc2cc(F)c([C@@H]3c4[nH]c5ccccc5c4C[C@@H](C)N3CC(C)(C)F)c(F)c2)C(C)(C)C)cc1 [Example 9, (2S,4R)-1-((S)-2-(2-((5-(2-(3,5-Difluoro-4-((1R,3R)-2-(2-fluoro-2-methylpropyl)-3-methyl-2,3,4,9-tetrahydro-1H-pyrido[3,4-b]indol-1-yl)phenoxy)ethoxy)pentyl)oxy)acetamido)-3,3-dimethylbutanoyl)-4-hydroxy-N-(4-(4-methylthiazol-5-yl)benzyl)pyrrolidine-2-carboxamide] | •• | 0.7 nM
Cc1ncsc1-c1ccc(CNC(=O)[C@@H]2C[C@@H](O)CN2C(=O)[C@@H](NC(=O)COCC/C=C/CCOc2cc(F)c([C@@H]3c4[nH]c5ccccc5c4C[C@@H](C)N3CC(C)(C)F)c(F)c2)C(C)(C)C)cc1 [Example 22, (2S,4R)-1-((S)-2-(2-(((E)-6-(3,5-Difluoro-4-((1R,3R)-2-(2-fluoro-2-methylpropyl)-3-methyl-2,3,4,9-tetrahydro-1H-pyrido[3,4-b]indol-1-yl)phenoxy)hex-3-en-1-yl)oxy)acetamido)-3,3-dimethylbutanoyl)-4-hydroxy-N-(4-(4-methylthiazol-5-yl)benzyl)pyrrolidine-2-carboxamide] | • | 3 nM
Cc1ncsc1-c1ccc(CNC(=O)[C@@H]2C[C@@H](O)CN2C(=O)[C@@H](NC(=O)COCCCCCCCOc2cc(F)c([C@@H]3c4[nH]c5ccccc5c4C[C@@H](C)N3CC(C)(C)F)c(F)c2)C(C)(C)C)cc1 [Example 7, (2S,4R)-1-((S)-2-(2-((7-(3,5-Difluoro-4-((1R,3R)-2-(2-fluoro-2-methylpropyl)-3-methyl-2,3,4,9-tetrahydro-1H-pyrido[3,4-b]indol-1-yl)phenoxy)heptyl)oxy)acetamido)-3,3-dimethylbutanoyl)-4-hydroxy-N-(4-(4-methylthiazol-5-yl)benzyl)pyrrolidine-2-carboxamide] | •• | 1.6 nM
Cc1ncsc1-c1ccc(CNC(=O)[C@@H]2C[C@@H](O)CN2C(=O)[C@@H](NC(=O)COCCOCCC(F)(F)CCOc2cc(F)c([C@@H]3c4[nH]c5ccccc5c4C[C@@H](C)N3CC(C)(C)F)c(F)c2)C(C)(C)C)cc1 [Example 127, (2S,4R)-1-((S)-2-(2-(2-((5-(3,5-Difluoro-4-((R,3R)-2-(2-fluoro-2-methylpropyl)-3-methyl-2,3,4,9-tetrahydro-1H-pyrido[3,4-b]indol-1-yl)phenoxy)-3,3-difluoropentyl)oxy)ethoxy)acetamido)-3,3-dimethylbutanoyl)-4-hydroxy-N-(4-(4-methylthiazol-5-yl)benzyl)pyrrolidine-2-carboxamide] | •• | 0.8 nM
Cc1ncsc1-c1ccc(CNC(=O)[C@@H]2C[C@@H](O)CN2C(=O)[C@@H](NC(=O)COCCCCCN(CCOc2cc(F)c([C@@H]3c4[nH]c5ccccc5c4C[C@@H](C)N3CC(C)(C)F)c(F)c2)C(=O)OCc2ccccc2)C(C)(C)C)cc1 [Example 45, Benzyl (2-(3,5-difluoro-4-((1R,3R)-2-(2-fluoro-2-methylpropyl)-3-methyl-2,3,4,9-tetrahydro-1H-pyrido[3,4-b]indol-1-yl)phenoxy)ethyl)(5-(2-(((S)-1-((2S,4R)-4-hydroxy-2-((4-(4-methylthiazol-5-yl)benzyl)carbamoyl)pyrrolidin-1-yl)-3,3-dimethyl-1-oxobutan-2-yl)amino)-2-oxoethoxy)pentyl)carbamate] | •• | 12 nM
Cc1ncsc1-c1ccc(CNC(=O)[C@@H]2C[C@@H](O)CN2C(=O)[C@@H](NC(=O)C2(OCCCCCCOc3cc(F)c([C@@H]4c5[nH]c6ccccc6c5C[C@@H](C)N4CC(C)(C)F)c(F)c3)CC2)C(C)(C)C)cc1 [Example 118, (2S,4R)-1-((S)-2-(1-((6-(3,5-difluoro-4-((1R,3R)-2-(2-fluoro-2-methylpropyl)-3-methyl-2,3,4,9-tetrahydro-1H-pyrido[3,4-b]indol-1-yl)phenoxy)hexyl)oxy)cyclopropane-1-carboxamido)-3,3-dimethylbutanoyl)-4-hydroxy-N-(4-(4-methylthiazol-5-yl)benzyl)pyrrolidine-2-carboxamide] | • | 4.7 nM
Cc1ncsc1-c1ccc(CNC(=O)[C@@H]2C[C@@H](O)CN2C(=O)[C@@H](NC(=O)CCCCCCCCOc2cc(F)c([C@@H]3c4[nH]c5ccccc5c4C[C@@H](C)N3CC(C)(C)F)c(F)c2)C(C)(C)C)cc1 [Example 15, (2S,4R)-1-((S)-2-(9-(3,5-Difluoro-4-((1R,3R)-2-(2-fluoro-2-methylpropyl)-3-methyl-2,3,4,9-tetrahydro-1H-pyrido[3,4-b]indol-1-yl)phenoxy)nonanamido)-3,3-dimethylbutanoyl)-4-hydroxy-N-(4-(4-methylthiazol-5-yl)benzyl)pyrrolidine-2-carboxamide] | • | 3.9 nM
Cc1ncsc1-c1ccc(CNC(=O)[C@@H]2C[C@@H](O)CN2C(=O)[C@@H](NC(=O)COCCCCCOCCOc2ccc([C@@H]3c4[nH]c5ccccc5c4C[C@@H](C)N3CC(F)F)nc2)C(C)(C)C)cc1 [Example 10, (2S,4R)-1-((S)-2-(2-((5-(2-((6-((1S,3R)-2-(2,2-Difluoroethyl)-3-methyl-2,3,4,9-tetrahydro-1H-pyrido[3,4-b]indol-1-yl)pyridin-3-yl)oxy)ethoxy)pentyl)oxy)acetamido)-3,3-dimethylbutanoyl)-4-hydroxy-N-(4-(4-methylthiazol-5-yl)benzyl)pyrrolidine-2-carboxamide] | •• | 12 nM
Cc1ncsc1-c1ccc(CNC(=O)[C@@H]2C[C@@H](O)CN2C(=O)[C@@H](NC(=O)CCCOc2ccc(COc3cc(F)c([C@@H]4c5[nH]c6ccccc6c5C[C@@H](C)N4CC(C)(C)F)c(F)c3)nc2)C(C)(C)C)cc1 [Example 161, (2S,4R)-1-((S)-2-(4-((6-((3,5-Difluoro-4-((1R,3R)-2-(2-fluoro-2-methylpropyl)-3-methyl-2,3,4,9-tetrahydro-1H-pyrido[3,4-b]indol-1-yl)phenoxy)methyl)pyridin-3-yl)oxy)butanamido)-3,3-dimethylbutanoyl)-4-hydroxy-N-(4-(4-methylthiazol-5-yl)benzyl)pyrrolidine-2-carboxamide] | • | 1.2 nM
